Measured values reported in US7959691B2, “Composition” (Innospec Deutschland GmbH, priority 2009, dated 2011).
Marks after values point to notes of the source that are not given here. Values belong to the molecule of their own block, whether it stands above or below them.

What was measured:
[1] = Iron content of Isopar L solutions stored at −30° C. (Example 2); assay type: physicochemical; conditions: for Iron content of Isopar L solutions at −30° C.: 5 wt % iron solutions in Isopar L stored at −30° C. at least one week, filtered, X-ray spectroscopy; for Iron content of Isopar L solutions at −30° C., purified sample: as E8, sample first purified by dissolving in minimum heptane, recrystallising out ferrocene, filtration, solvent removal
Procedure: The solubilities of the products of the above reactions were determined on a weight percent iron basis. […] Solutions at 5 wt % iron in Isopar L were prepared on this basis, sealed into vials and stored at −30° C. during at least one week.

[2] = Solubility in Isopar L at −30° C. during 120 hours, X-ray fluorescence (Example 4); assay type: physicochemical; conditions: nominal 5 wt % iron; for Solubility (% m/m Fe): 0.02 μm filtration
Procedure: The solubility of the isolated samples was determined in Isopar L solvent. For the isolated samples of compounds 7 and 8 the C/H/N analysis was used to indicate the iron content. For compounds 9 and 10 the theoretical iron content was assumed. Solutions were then prepared, at ambient temperatures or with slight warming as required, to a nominal iron content 5 wt % The samples were then sealed and immersed in a bath of ethylene glycol/water cooled and thermostatted to −30° C. during 120 hours.
The samples were then individually removed from the bath, taken up into a 10 cm^3 syringe then discharged to a second vial with filtration via a Whatman Anotop 25 0.02 μm in-line filter with Luer hub. Iron contents were then determined by X-ray fluorescence spectroscopy in an Oxford Instruments ED2000 Ag analyser. The analyser was calibrated against standards of ferrocene in toluene at iron concentrations of 0.5 through 3.0 wt % by 0.5 wt % intervals and against ferrocene in Isopar L 0.5 and 1.0 wt % (approximate ambient temperature solubility limit). Where required, dilution of sample materials was employed to bring the concentration within the range of the calibration.

[3] = From the text: Solubility testing was undertaken using the estimate of Fe content from C/H/N analysis. […] This procedure assumes the products below to contain substantially only C, H and Fe. Masses of product(s) sufficient to provide the required concentration of iron as condensation products were weighed into screw-cap vials and made up to 10.00 g with toluene. The samples were capped, shaken or swirled until homogenous then sealed using Parafilm™. The vials were then kept in an ethylene glycol/water filled bath held at −30° C. and periodically inspected for the appearance of solids or separation of liquid phases. After at least one week solids were separated by rapid filtration and soluble products isolated by removal of solvent under vacuum.
Following analysis of the solids, maximum and minimum solubilities were estimated from the mass balance.

[4] = Viscosity of 2.5 wt % iron solutions in toluene (Bohlin CVO rheometer); assay type: physicochemical; conditions: toluene solution at 2.5 wt % Fe
Procedure: Viscosities of 2.5 wt % iron solutions were determined using a Bohlin Instruments CVO rheometer using a 4° 40 mm cone and plate at shear rates of either 2 Pa or 0.5 Pa.

Molecule: 1,1-bis-(ferrocenyl)-hexane
Iron content of Isopar L solutions at −30° C. [1]: 3.99 wt %
Iron content of Isopar L solutions at −30° C., purified sample [1]: 4.89* wt %

Molecule: 1,1-bis(butylferrocenyl)pentane [Compound 10]
Appearance/ease of filtration [2]: Clear, but hard to filter
Solubility (% m/m Fe) [2]: 4.8 % m/m Fe

Molecule: 1,1-bis-(ferrocenyl)-nonane
Iron content of Isopar L solutions at −30° C. [1]: 4.96 wt %

Molecule: 1,1-diferrocenylpentane [Compound 4]
Solubility in Toluene at −30° C., 2.5 wt % Fe [3]: Clear
Solubility in Toluene at −30° C., 5.0 wt % Fe [3]: Clear
Viscosity at −30° C. [4]: 5.4 mPas

Molecule: 1,1-bis-(ferrocenyl)-heptane
Iron content of Isopar L solutions at −30° C. [1]: 4.05 wt %

Molecule: 2,2-bis-(ferrocenyl)-heptane
Iron content of Isopar L solutions at −30° C. [1]: 3.29 wt %

Molecule: 1,1-bis-(ferrocenyl)-octane
Iron content of Isopar L solutions at −30° C. [1]: 4.60 wt %
Iron content of Isopar L solutions at −30° C., purified sample [1]: 4.88* wt %

Molecule: 2,2-bis-(ferrocenyl)-pentane
Iron content of Isopar L solutions at −30° C. [1]: 2.62 wt %

Molecule: 3,3-bis-(ferrocenyl)-pentane
Iron content of Isopar L solutions at −30° C. [1]: 1.71 wt %

Molecule: 2,2-bis-(ferrocenyl)-octane
Iron content of Isopar L solutions at −30° C. [1]: 2.72 wt %

Solubility in Toluene at −30° C., 2.5 wt % Fe [3]: Clear
Solubility in Toluene at −30° C., 5.0 wt % Fe [3]: Solids
Viscosity at −30° C. [4]: 5.1 mPas
Molecule: CCCC(=O)CCC [Compound 3, Heptan-4-one]

Molecule: 3,3-bis-(ferrocenyl)-hexane
Iron content of Isopar L solutions at −30° C. [1]: 1.38 wt %

Molecule: CC(=O)CCC(C)=O [Compound 2, Acetonyl acetone]
Solubility in Toluene at −30° C., 2.5 wt % Fe [3]: Powder
Solubility in Toluene at −30° C., 5.0 wt % Fe [3]: Powder

Molecule: 3,3-bis-(ferrocenyl)-butyl acetate
Iron content of Isopar L solutions at −30° C. [1]: 2.30 wt %

Solubility in Toluene at −30° C., 2.5 wt % Fe [3]: Clear
Solubility in Toluene at −30° C., 5.0 wt % Fe [3]: Clear
solubility limit in toluene [3]: less than 3.2 wt %
Viscosity at −30° C. [4]: 5.1 to 6.4 mPas
Molecule: CCCCC(C=O)CC (centres unmarked) [Compound 1, 2-Ethylhexanal]

Molecule: 1,1-bis-(ferrocenyl)-decane
Iron content of Isopar L solutions at −30° C. [1]: 4.41 wt %

Molecule: 1,1-bis(ethylferrocenyl)pentane [Compound 9]
Appearance/ease of filtration [2]: Clear, filters well
Solubility (% m/m Fe) [2]: 5.0 % m/m Fe
